Reference: patent publication US9730934B2, “Quinazoline derivatives substituted by aniline, preparation method and use thereof” (XUANZHU PHARMA CO., LTD., priority 2010, dated 2017)
Where a name gives a salt, the structure may show the parent alone.

Experiments:
Experiment in all cases: In vitro enzyme inhibitory activity (Caliper mobility shift, FAM labeled peptide)
Type in all cases: biochemical
Conditions in all cases: 28° C., 1 h reaction
HER4 = HER4 (Homo sapiens (Human), UniProt Q15303)
Experimental: (§1) In Vitro Enzyme Inhibitory Activity of the Present Compounds
HER4: human epidermal growth factor receptor 4 (Carna).
(§2) 1. Formulating the agents to be used in the assay
(§3) (6) 5-fold compound solutions (using 100% DMSO to formulate 50-fold compound solutions having different concentration gradients, and diluting with water by 10 times to obtain 5-fold compound solutions having different concentration gradients);
(§4) 2. Adding 5 μL of a 5-fold compound solution to a 384-well plate;
(§5) 3. Adding 10 μL of a 2.5-fold kinase solution to incubate for 10 min;
(§6) 4. Then adding 10 μL of a 2.5-fold peptide solution, and reacting at 28° C. for 1 h; and
(§7) 5. Finally, adding 25 μL of stop buffer to terminate the reaction, and reading the data with Caliper.
(§8) 6. Curve fitting to obtain an IC50 value. The calculated inhibition ratio (%)=(the maximum conversion rate−the conversion rate)/(the maximum conversion rate−the minimum conversion rate)×100
(§9) The curve fitting was conducted with the Xlfit software to obtain IC50 values.

EGFR = EGFR (Homo sapiens (Human), UniProt P00533)
Experimental: as §1
EGFR: human epidermal growth factor receptor (Carna);
as §2, §3, §4, §5, §6, §7, §8, §9

HER2 = HER2 (Homo sapiens (Human), UniProt P04626)
Experimental: as §1
HER2: human epidermal growth factor receptor 2 (Carna);
as §2, §3, §4, §5, §6, §7, §8, §9

HER2, sequence (P04626 23-1255): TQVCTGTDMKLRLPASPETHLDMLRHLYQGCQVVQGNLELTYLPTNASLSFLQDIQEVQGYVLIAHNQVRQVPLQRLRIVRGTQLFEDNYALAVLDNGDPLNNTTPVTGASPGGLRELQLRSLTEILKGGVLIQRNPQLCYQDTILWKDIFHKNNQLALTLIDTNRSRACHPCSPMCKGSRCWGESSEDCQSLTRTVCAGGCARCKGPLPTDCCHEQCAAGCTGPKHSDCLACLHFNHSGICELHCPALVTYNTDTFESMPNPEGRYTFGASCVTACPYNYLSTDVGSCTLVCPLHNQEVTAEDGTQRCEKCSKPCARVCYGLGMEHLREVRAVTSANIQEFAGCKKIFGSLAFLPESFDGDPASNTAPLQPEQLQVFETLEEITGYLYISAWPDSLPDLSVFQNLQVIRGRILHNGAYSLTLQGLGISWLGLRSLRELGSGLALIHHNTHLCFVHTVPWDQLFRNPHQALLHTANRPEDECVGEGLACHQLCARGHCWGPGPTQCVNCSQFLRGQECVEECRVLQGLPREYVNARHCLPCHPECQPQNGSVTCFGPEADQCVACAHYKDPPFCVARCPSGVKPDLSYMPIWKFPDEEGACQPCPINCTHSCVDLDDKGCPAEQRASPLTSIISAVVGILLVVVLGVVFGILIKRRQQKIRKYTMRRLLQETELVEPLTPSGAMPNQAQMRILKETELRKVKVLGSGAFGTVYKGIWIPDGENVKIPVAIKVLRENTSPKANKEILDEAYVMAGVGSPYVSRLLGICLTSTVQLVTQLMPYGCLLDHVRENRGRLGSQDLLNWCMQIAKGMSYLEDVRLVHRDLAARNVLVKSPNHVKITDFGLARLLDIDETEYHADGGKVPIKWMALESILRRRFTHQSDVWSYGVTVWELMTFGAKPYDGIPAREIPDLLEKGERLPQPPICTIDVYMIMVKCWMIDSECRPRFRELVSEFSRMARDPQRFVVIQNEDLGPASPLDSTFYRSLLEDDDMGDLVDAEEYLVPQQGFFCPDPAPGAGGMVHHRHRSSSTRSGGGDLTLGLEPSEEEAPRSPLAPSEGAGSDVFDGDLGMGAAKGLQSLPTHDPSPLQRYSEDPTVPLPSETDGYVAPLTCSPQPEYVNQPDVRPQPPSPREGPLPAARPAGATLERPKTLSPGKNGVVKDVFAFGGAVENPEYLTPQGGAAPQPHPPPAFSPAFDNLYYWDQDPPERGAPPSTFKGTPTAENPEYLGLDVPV
EGFR, sequence (P00533 25-1210): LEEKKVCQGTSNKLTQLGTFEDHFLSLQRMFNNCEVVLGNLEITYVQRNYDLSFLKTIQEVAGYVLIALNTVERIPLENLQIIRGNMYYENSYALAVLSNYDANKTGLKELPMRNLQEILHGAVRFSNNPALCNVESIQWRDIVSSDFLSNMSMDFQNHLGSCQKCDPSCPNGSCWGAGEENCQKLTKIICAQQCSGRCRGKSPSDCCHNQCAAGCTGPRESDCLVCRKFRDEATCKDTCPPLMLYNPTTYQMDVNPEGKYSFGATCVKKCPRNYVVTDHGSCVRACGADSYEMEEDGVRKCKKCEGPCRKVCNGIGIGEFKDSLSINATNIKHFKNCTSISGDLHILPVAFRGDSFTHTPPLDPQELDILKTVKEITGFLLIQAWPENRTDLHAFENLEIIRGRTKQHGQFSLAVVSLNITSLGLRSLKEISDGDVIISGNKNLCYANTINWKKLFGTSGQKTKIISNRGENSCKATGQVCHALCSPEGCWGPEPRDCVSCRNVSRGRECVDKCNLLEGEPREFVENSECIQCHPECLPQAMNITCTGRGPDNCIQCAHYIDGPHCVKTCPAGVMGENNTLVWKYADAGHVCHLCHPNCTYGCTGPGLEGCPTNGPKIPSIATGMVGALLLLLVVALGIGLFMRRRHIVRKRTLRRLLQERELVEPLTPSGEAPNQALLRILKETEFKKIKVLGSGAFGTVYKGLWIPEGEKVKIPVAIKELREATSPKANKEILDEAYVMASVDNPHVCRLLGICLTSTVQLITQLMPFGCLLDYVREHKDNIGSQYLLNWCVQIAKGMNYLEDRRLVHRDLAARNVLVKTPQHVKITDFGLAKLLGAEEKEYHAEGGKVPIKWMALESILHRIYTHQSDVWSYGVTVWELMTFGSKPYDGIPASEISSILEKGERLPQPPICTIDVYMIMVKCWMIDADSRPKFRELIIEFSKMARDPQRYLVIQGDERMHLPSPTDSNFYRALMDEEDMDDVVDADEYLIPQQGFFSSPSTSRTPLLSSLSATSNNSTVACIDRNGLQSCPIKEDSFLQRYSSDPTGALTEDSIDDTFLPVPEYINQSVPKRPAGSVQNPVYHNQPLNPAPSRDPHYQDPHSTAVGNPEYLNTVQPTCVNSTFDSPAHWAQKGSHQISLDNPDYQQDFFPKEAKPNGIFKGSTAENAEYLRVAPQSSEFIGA
HER4, sequence (Q15303 26-1308): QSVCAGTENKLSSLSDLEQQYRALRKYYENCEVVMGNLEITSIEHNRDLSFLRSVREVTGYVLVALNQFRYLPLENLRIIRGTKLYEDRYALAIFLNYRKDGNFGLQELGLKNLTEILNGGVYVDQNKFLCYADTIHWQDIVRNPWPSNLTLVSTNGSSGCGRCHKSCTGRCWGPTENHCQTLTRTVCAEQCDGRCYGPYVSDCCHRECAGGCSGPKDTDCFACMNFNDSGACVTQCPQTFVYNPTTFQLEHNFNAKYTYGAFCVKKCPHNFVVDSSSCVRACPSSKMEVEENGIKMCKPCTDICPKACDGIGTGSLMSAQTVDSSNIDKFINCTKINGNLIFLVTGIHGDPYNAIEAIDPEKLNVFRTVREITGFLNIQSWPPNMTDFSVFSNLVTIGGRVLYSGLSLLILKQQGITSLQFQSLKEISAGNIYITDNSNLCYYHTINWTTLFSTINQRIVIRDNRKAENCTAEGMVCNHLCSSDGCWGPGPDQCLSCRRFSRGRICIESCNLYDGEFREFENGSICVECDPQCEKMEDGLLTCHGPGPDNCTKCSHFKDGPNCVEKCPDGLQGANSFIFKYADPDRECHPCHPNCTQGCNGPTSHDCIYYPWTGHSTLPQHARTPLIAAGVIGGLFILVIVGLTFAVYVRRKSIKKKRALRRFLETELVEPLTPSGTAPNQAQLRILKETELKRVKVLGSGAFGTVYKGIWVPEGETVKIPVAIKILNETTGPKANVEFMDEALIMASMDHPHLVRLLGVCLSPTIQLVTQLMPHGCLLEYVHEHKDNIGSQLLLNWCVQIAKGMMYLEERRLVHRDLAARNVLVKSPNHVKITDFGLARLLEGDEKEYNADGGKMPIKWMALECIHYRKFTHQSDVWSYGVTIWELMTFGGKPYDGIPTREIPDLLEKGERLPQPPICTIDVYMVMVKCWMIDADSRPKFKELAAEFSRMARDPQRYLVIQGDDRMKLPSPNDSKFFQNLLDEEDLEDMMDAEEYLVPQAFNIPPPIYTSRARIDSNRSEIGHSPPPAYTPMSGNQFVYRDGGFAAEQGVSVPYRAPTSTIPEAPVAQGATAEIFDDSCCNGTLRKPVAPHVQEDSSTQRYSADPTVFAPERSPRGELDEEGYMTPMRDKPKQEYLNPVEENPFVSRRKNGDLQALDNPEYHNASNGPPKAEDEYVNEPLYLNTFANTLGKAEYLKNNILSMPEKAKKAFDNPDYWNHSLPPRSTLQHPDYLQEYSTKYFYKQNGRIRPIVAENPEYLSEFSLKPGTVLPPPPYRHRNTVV

SMILES	IC50 (HER4) [nM]	IC50 (EGFR) [nM]	IC50 (HER2) [nM]
C=CC(=O)Nc1cc2c(Nc3ccc(F)c(Cl)c3)ncnc2cc1OCCC1C2CCC1CN(C)C2 (stereo not shown) [Compound 11, N-[4-(3-chloro-4-fluorophenylamino)-7-(2-(3-methyl-3-azabicyclo[3.2.1]octan-8-yl)ethoxy)quinazolin-6-yl]-acrylamide]	8.3	0.8	12
C=CC(=O)Nc1cc2c(Nc3ccc(F)c(Cl)c3)ncnc2cc1OCC1CCC2(CCN(C)CC2)O1 (stereo not shown) [Compound 7, N-[4-(3-chloro-4-fluorophenylamino)-7-(8-methyl-1-oxa-8-azaspiro[4.5]decan-2-ylmethoxy)quinazolin-6-yl]-acrylamide]	1.7		4.3
C=CC(=O)Nc1cc2c(Nc3ccc(F)c(Cl)c3)ncnc2cc1OCCC1CC2(CCN(C)CC2)C1 [Compound 19 hydrochloride, N-[4-(3-chloro-4-fluorophenylamino)-7-(2-(7-methyl-7-azaspiro[3.5]nonan-2-yl)ethoxy)quinazolin-6-yl]-acrylamide hydrochloride]	3.7	0.56	3.1

The remaining lines, values ahead:

IC50 (HER4) [nM]	IC50 (EGFR) [nM]	IC50 (HER2) [nM]	SMILES
1.9	1	6.5	C=CC(=O)Nc1cc2c(Nc3ccc(F)c(Cl)c3)ncnc2cc1OCC1CC2(CCN(C)CC2)C1 [Compound 18, N-[4-(3-chloro-4-fluorophenylamino)-7-((7-methyl-7-azaspiro[3.5]nonan-2-yl)methoxy)quinazolin-6-yl]-acrylamide]
1.4	1	7.1	C=CC(=O)Nc1cc2c(Nc3ccc(F)c(Cl)c3)ncnc2cc1OCC1COC2(CCN(C)CC2)C1 (stereo not shown) [Compound 6, N-[4-(3-chloro-4-fluorophenylamino)-7-((8-methyl-1-oxa-8-azaspiro[4.5]decan-3-yl)methoxy)quinazolin-6-yl]-acrylamide]
3.4		6.5	C=CC(=O)Nc1cc2c(Nc3ccc(F)c(Cl)c3)ncnc2cc1OCC[C@@H]1[C@H]2CN(C)C[C@@H]12 [Compound 8]
1.2	0.39	2.6	C=CC(=O)Nc1cc2c(Nc3ccc(F)c(Cl)c3)ncnc2cc1OCCC1CC12CCN(C)CC2 (stereo not shown) [Compound 14, N-[4-(3-chloro-4-fluorophenylamino)-7-(2-(6-methyl-6-azaspiro[2.5]octan-1-yl)ethoxy)quinazolin-6-yl]-acrylamide]
